Measurements from patent US20220168300A1, “Methods of Managing Vascular Conditions and Diabetic Peripheral Neuropathies” (Emory University, priority 2019, published 2022).

How the values were obtained:
[1] = Blood glucose and body weight in diabetic mice; assay type: in vivo; settings: 50 mg/kg/day intraperitoneal for 4 weeks
Method: To investigate the preventive therapeutic effects of direct injection of belinostat on diabetic nerves, streptozotocin (STZ)-induced diabetic mice were randomly assigned to solvent-treated (DM) as vehicle controls or HDAC inhibitor-treated (DM+HDACi) groups. […] Belinostat was resuspended in 45% (2-hydroypropyl)-beta-cyclodextrin (HP-β-CD) and injected into mice via the intraperitoneal route at 50 mg/kg/day for 4 weeks.

[2] = test system: streptozotocin (STZ)-induced diabetic mice; test: Sensory and motor nerve conduction velocities in diabetic neuropathy model; assay type: in vivo
Method: To investigate the preventive therapeutic effects of direct injection of belinostat on diabetic nerves, streptozotocin (STZ)-induced diabetic mice were randomly assigned to solvent-treated (DM) as vehicle controls or HDAC inhibitor-treated (DM+HDACi) groups. […] After intraperitoneal injection of belinostat or an equal volume of solvent vehicle (HP-β-CD), both sensory and motor nerve conduction velocities (NCVs) were measured for 18 weeks at every week (n=11-14, each group) from 0 week after treatment. Non-diabetic mice, which received solvent vehicle (HP-j-CD), were used as controls (NDM).

[3] = test system: streptozotocin (STZ)-induced diabetic mice; test: Tactile allodynia (von Frey hair testing); assay type: in vivo
Method: To investigate the preventive therapeutic effects of direct injection of belinostat on diabetic nerves, streptozotocin (STZ)-induced diabetic mice were randomly assigned to solvent-treated (DM) as vehicle controls or HDAC inhibitor-treated (DM+HDACi) groups. […] To investigate preventive effects of belinostat in diabetic neuropathy, tactile response threshold, thermal withdrawal latency, and rotarod performance were tested. For assay of tactile allodynia, mice were transferred to a glass cage with a wire mesh floor allowing access to the plantar surface of the hind paws. Behavioral accommodation was allowed for approximately 15 min until cage exploration and major grooming activities ceased.

[4] = test system: streptozotocin (STZ)-induced diabetic mice; test: Paw thermal withdrawal latency; assay type: in vivo
Method: To investigate the preventive therapeutic effects of direct injection of belinostat on diabetic nerves, streptozotocin (STZ)-induced diabetic mice were randomly assigned to solvent-treated (DM) as vehicle controls or HDAC inhibitor-treated (DM+HDACi) groups. […] For measurement of paw thermal withdrawal latency, mice were placed in an observation chamber on top of the thermal testing apparatus and allowed to acclimate to the warmed glass surface (30° C.) and surroundings for 15 min. The mobile heat source was maneuvered to below the center of the right hind paw and turned on, a process that activates a timer and locally warms the glass surface at a rate of approximately 1° C./s. When the mouse withdrew the paw, movement sensors stopped the timer and turned off the heat source. Right hind paw was measured three times and the mean of three measurements used as a composite source for each mouse. The response latency was converted to the response temperature using a time: floor temperature calibration curve that was constructed each day to allow for day-to-day variations in the surface heating rate.

[5] = test system: streptozotocin (STZ)-induced diabetic mice; test: Rotarod performance test; assay type: in vivo
Method: To investigate the preventive therapeutic effects of direct injection of belinostat on diabetic nerves, streptozotocin (STZ)-induced diabetic mice were randomly assigned to solvent-treated (DM) as vehicle controls or HDAC inhibitor-treated (DM+HDACi) groups. […] For rotarod performance test, mice were placed on a rotarod apparatus to assess motor coordination and physical condition. Before the training session, each mouse was habituated to stay on the spindle with slow constant speed for 5 min. Mice were trained for 5 min at 45 rpm before measurement. The horizontal rod rotating by 45 rpm and the maximal length of observation time for each trial was 5 min.

[6] = test system: streptozotocin (STZ)-induced diabetic mice; test: Vascularization of sciatic nerves (FITC-conjugated BSL1); assay type: in vivo; settings: DM+HDACi, 18 weeks after treatment
[7] = test system: streptozotocin (STZ)-induced diabetic mice; test: Intraepidermal nerve fiber density (PGP9.5 staining) in hind paw plantar skin; assay type: in vivo; settings: DM+HDACi group
Source text: To investigate the preventive therapeutic effects of direct injection of belinostat on diabetic nerves, streptozotocin (STZ)-induced diabetic mice were randomly assigned to solvent-treated (DM) as vehicle controls or HDAC inhibitor-treated (DM+HDACi) groups. […] To evaluate the protective effect of belinostat on diabetic intraepidermal nerve fiber, we stained IENF in hind paw plantar skin with pan-neuronal marker PGP9.5 and counted the number of fibers throughout the epidermis relative to length of tissue.

[8] = test system: streptozotocin (STZ)-induced diabetic mice; test: Light and electron microscopy of sciatic nerve myelinated fibers; assay type: in vivo; settings: DM+HDACi
Source text: To investigate the preventive therapeutic effects of direct injection of belinostat on diabetic nerves, streptozotocin (STZ)-induced diabetic mice were randomly assigned to solvent-treated (DM) as vehicle controls or HDAC inhibitor-treated (DM+HDACi) groups. […] It was examined whether belinostat could affect the ultrastructure of diabetic nerves, which is characterized by morphological alterations in the myelin sheath, a hallmark of DN. Accordingly, light microscopy and transmission electron microscopy were performed on sciatic nerves obtained at 18 weeks after STZ injection. The alternation of myelination pattern was categorized into four groups: decompaction, infolding, focal lysis, and splitting. […] Axonal atrophy is associated with slowing of nerve conduction but is difficult to distinguish from loss of large diameter axons. A reduced index of circularity and an increased g-ratio supports the axonal atrophy. […] A loss of large diameter axons in the peripheral nerve system is the most frequent consequence of metabolic diseases such as diabetes.

[9] = test system: HUVECs, Schwann cells (S16), and DRG neurons (ND7/23); test: Quantitative RT-PCR of gene expression in cells cultured in diabetic (high glucose) condition; settings: in vitro experimental data using cells
Method: To determine effects of different types of HDAC inhibitors on different target cells, cells were cultured in diabetic condition (450 mg/dl glucose, 7 days) and were treated HDAC inhibitors for 7 days.

[10] = leading to increases in H3/H4 acetylation in brain tissue; cited from earlier work
Diabetic EPCs (D-EPCs) = test: DNA methylation (MSRE-PCR) and gene expression of angiogenic genes in D-EPCs; assay type: cell-based, rat
Source text: Rescue of epigenetic silencing of angiogenic genes in D-EPCs Diabetic EPCs (D-EPCs) have high methylation in the promoter regions of key angiogenic and neurotrophic genes and small molecular epigenetic regulators can reverse these changes, increase gene expression and improve cellular functions. To prepare D-EPCs streptozotocin (STZ) was used to induce diabetic conditions. Differential expression of angiogenic genes was investigated between normal EPCs (N-EPCs) and D-EPCs using an Angiogenesis Microarray kit. The expression of many angiogenic genes was suppressed in D-EPCs. In this disclosure, histone deacetylase (HDAC) inhibitors, i.e., Vorinostat (Zolinza, SAHA), Belinostat (Beleodaq, PXD-101), and Quisinostat (JNJ-26481585), were used. The preliminary experiments were performed using rat EPCs as well as human and rat MSCs. To test the reversible changes of gene expression and epigenetic modifications in D-EPCs by small molecule epigenetic regulators, epigenetic profiling studies were performed using methylation-sensitive restriction enzyme (MSRE)-PCR assays. An HDAC inhibitor, valproic acid (VPA), was used as the epigenetic regulator.

[11] = sciatic nerve 18 weeks after STZ, n=406
[12] = sciatic nerve, P<0.001 versus DM

## O=C(/C=C/c1cccc(S(=O)(=O)Nc2ccccc2)c1)NO [Belinostat, (E)-N-hydroxy-3-[3-(phenylsulfamoyl)phenyl]prop-2-enamide]
[1]
  blood glucose levels and animal body weight compared to DM group: did not significantly alter
[2]; DM+HDACi group, over 15 weeks, 50 mg/kg/day i.p. for 4 weeks, P<0.001 versus DM
  sensory NCV: 34.76±0.61 m/s
[2]; DM+HDACi group, over 15 weeks, 50 mg/kg/day i.p. for 4 weeks, P<0.05 versus DM
  motor NCV: 51.15±2.60 m/s
[2]; FIG. 1A, direct injection, diabetic mice
  nerve conduction velocities (NCVs), effect in words: improved
[2]; FIG. 1B, diabetic mice over 15 weeks
  motor NCVs, effect in words: significantly improved
[3]; DM+HDACi group at 3 weeks of diabetes
  paw withdrawal threshold (von Frey): 0.15 ± 0.09 g
[3]; DM+HDACi group at 14 weeks after HDAC inhibitor injection, P<0.001 versus DM
  paw withdrawal threshold (von Frey): 1.33 ± 0.30 g
[3]; FIG. 2A, 14 weeks after belinostat injection
  paw withdrawal thresholds, effect in words: recovered to nondiabetic group
[4]; DM+HDACi group at 12 weeks of diabetes, P<0.001 versus DM
  paw withdrawal temperature: 34.30±0.24 °C
[4]; FIG. 2B, HDAC treated group
  thermal withdrawal latency, effect in words: maintained
[5]; DM+HDACi group, 45 rpm, max 5 min
  rotarod fall latency: 254.77 ± 25.23 s
[5]; FIG. 2C
  rotarod performance, DM versus DM+HDACi: no significant difference
[6]
  vascularity in sciatic nerves: increased vascularity
[7]
  number of intraepidermal nerve fibers (IENF): 30.61±1.83 IENF/mm
[8]
  g-ratio of myelinated sciatic nerve: 0.65±0.0044
[8]; sciatic nerve
  reduction of axonal circularity compared to NDM: 10.3%
[8]; [11]
  altered myelination pattern: decompaction: 6.35%
  altered myelination pattern: focal lysis: 7.22%
  altered myelination pattern: infolding: 1.49%
  altered myelination pattern: splitting: 0%
[8]; [12]
  axon diameter of myelinated axons: 4.17 ± 0.1 µm
  index of circularity of axon: 0.70
[9]
  upregulation of gene expression in vitro, compared to vorinostat and quisinostat: superior properties

## O=C(CCCCCCC(=O)Nc1ccccc1)NO [SAHA, suberoylanilide hydroxamic acid]
[10]
  blood-brain-barrier (BBB) crossing: can cross the blood-brain-barrier

## CCCC(CCC)C(=O)O [VPA, valproic acid]
Diabetic EPCs (D-EPCs)
  angiogenic gene expression: enhanced gene expression
Diabetic EPCs (D-EPCs); MSRE-PCR
  DNA methylation at promoters of angiogenic genes: reduced DNA methylation
